Legend:
ENL YEATS domain = target: T1, ENL YEATS domain (Homo sapiens, UniProt Q03111); assay: TR-FRET ENL Screening Assay; conditions: 6×HIS ENL YEATS domain binding to biotinylated H3K9cr peptide (aa1-20)
T1 construct: ENL Protein (6×HIS ENL YEATS Domain, EpiCypher, 15-0069); purchased EpiCypher 15-0069
T1 sequence (Q03111 1-138 limits assumed): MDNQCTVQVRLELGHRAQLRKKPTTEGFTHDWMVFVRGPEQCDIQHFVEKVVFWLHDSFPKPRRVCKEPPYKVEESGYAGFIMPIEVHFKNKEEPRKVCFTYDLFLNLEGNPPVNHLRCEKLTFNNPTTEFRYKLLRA
Experimental: Compounds of the invention were tested in a TR-FRET ENL Screening Assay. TR-FRET (time-resolved fluorescence energy transfer) can be used to quantify ENL YEATS domain binding to a crotonylated histone peptide (H3K9cr, aa1-20). Streptavidin-Europium (Eu) chelate binds the biotinylated peptide, while Anti-6×HIS ULight™ binds 6×HIS-ENL. When Eu chelate is excited at 320 nm, fluorescence resonance energy transfer (FRET) occurs if Eu and ULight are made proximal by ENL binding to the acyl-peptide. ULight emission (FRET) is measured at 665 nm and normalized to the Eu emission at 615 nm to reduce variability between wells.
Compounds of the invention were dissolved in DMSO at a concentration of 3 mM with subsequent dilutions in assay buffer (50 mM HEPES PH 7.0, 150 mM NaCl, 0.05% BSA, 0.2% Pluronic F-127) such that the assay contained 1% DMSO. In a white 384 shallow well Microplate (Proxiplate-384 Plus, PerkinElmer, 6008280), 150 nL of compound or vehicle (1% DMSO in assay buffer) for the high control (HC) wells and 5 μL of 30 nM ENL Protein (6×HIS ENL YEATS Domain, EpiCypher, 15-0069) were combined and incubated 15 minutes at RT. Low control (LC) wells received 5 μL of assay buffer instead of ENL protein. Then 5 μL of 15 nM H3K9cr peptide (H3 aa1-20, biotinylated; EpiCypher, 12-0099) in assay buffer was added and incubated 30 minutes at RT. Finally, a 5 L mix of 45 nM Anti-6HIS ULight (PerkinElmer, TRF0105) and 1.5 nM Streptavidin-Europium Chelate (PerkinElmer, AD0060) were added and incubated for a further 30 minutes at RT. The TR-FRET signal (665 nm signal/615 nm signal×10,000) was measured using a PerkinElmer 2104 EnVision (Xenon Flash Lamp excitation, 320 nm±37.5 nm excitation filter, 407 nm cut off dichroic mirror, 615 nm±4.25 (Europium) nm and 665 nm+3.75 nM (ULight) emission filters). Compound concentration response curves were performed in duplicate over the concentration range of 0.15 nM-30 μM. The response at each compound concentration minus the LC value was converted to percent inhibition of the vehicle control group response (HC-LC).

[1] = test system: MV4:11 (MLL-AF4 MLL) cells; assay: Cell viability assay (CellTiter-Glo), 12 days; type: cell-based; conditions: Homo sapiens, 288 h, MV4:11 cells, cells split on days 4 and 8, CellTiter-Glo readout, read-out: MV4:11, 12 Day IC50
Experimental: Cell-based assays were used to assess the ability of test compounds to reduce cell viability in both MV4:11 (MLL-AF4 MLL) and K562 cells, which were cultured in Iscove's Modified Dulbecco's medium (Gibco, 12440061) containing 10% FBS. The assays were conducted over 12 days and the cells being split on days 4 and 8. Compound concentration response curves were performed in duplicate over the concentration range of 0.15 nM-30 μM. On day 0, the compounds or vehicle were plated in a 300 nL directly into 96 well cell culture plates (Corning, 3599) with 5000 cells/well in a volume of 100 μL. Blank wells received cell culture medium. Plates were incubated for 4 days at 37° C. with 5% CO2. On days 4 and day 8 the cells were split and incubated for a further 4 days whilst an aliquot of cells were taken for the CTG readout. For the cell splitting, 270 nL of compounds or DMSO was added to a new 96 well cell culture plate to which 90 μL of medium plus 10 μL of cells from the original assay plate (after mixing) or 100 μL of medium (Blank wells) was added. This was repeated on day 8.
Cell viability was assessed using the CellTiter-Glo® homogeneous luminescent assay kit (Promega, G9243), according to the manufacturer's instructions. This quantifies ATP, which indicates the presence of metabolically active cells. On days 4, 8 and 12, 20 μl of the remaining cell suspension was aspirated into 384-well plate (Corning 3570) to which an equal volume CellTiter-Glo reagent was. Plates were incubated for 10 minute incubation at RT prior to recording the luminescence signal using EnVision plate reader (PE, 2104). The resulting data were analyzed as follows:
where vehicle are cells treated with 0.3% DMSO, Blank is culture medium. IC50 determinations were calculated by fitting the curve using XLfit (v5.3.1.3): Y=Bottom+(Top−Bottom)/(1+10^((Log IC50−X)*HillSlope)).

FLT3 = target: T2, FLT3 (Homo sapiens, UniProt P36888); assay: FLT3 Inhibition Assay; type: biochemical; conditions: FL Peptide 2 substrate, 30 min preincubation, 90 min at room temperature, Caliper EZ reader
T2 construct: purchased Carna 08-154
T2 sequence (P36888 27-993): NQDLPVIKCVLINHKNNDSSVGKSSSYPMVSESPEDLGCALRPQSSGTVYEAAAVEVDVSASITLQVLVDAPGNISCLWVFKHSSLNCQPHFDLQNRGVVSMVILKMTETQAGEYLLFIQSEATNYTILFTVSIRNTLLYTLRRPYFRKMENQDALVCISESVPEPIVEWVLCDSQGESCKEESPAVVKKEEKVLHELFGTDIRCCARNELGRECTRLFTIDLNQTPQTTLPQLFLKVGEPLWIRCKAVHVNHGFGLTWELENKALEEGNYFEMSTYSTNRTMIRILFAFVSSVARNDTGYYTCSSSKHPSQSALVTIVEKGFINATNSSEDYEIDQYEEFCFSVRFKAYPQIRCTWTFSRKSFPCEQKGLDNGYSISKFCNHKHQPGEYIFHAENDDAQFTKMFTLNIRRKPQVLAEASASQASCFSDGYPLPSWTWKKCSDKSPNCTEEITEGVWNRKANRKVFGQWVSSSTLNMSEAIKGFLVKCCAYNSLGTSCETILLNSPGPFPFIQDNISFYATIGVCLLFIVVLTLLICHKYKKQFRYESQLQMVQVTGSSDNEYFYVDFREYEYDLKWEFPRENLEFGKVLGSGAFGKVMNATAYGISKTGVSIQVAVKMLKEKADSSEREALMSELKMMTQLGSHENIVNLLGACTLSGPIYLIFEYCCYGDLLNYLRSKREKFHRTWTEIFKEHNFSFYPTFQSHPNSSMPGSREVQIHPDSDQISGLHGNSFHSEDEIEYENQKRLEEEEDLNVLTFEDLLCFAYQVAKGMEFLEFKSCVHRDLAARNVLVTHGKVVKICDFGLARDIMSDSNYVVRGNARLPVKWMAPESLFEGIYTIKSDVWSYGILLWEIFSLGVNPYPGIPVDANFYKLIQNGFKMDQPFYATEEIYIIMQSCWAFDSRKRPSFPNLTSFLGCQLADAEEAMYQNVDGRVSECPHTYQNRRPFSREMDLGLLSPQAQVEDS
Experimental: Starting with a 10 mM stock solution, each test compound was serially diluted into 10 concentrations by 3-fold dilution using TECAN EVO200. 60 nL of each stock was transferred to a 384 plate using Echo550.
Solution 1 was prepared as the table above and used to dilute the FLT3, ATP and FL2 stock to 0.9379 nM (1.33×), 400 μM (4×) and 6 μM (4×) respectively. The FLT3 solution (15 μL) at 25° C. was added to each well, shaken for 1 min and preincubated with test compound and controls for 30 min. To each well, 5 μL of ATP and FL-Peptide2 solutions, as prepared above, were added and the plate was shaken for 10 seconds, then spun briefly at 1000 rpm, then incubated for 90 minutes at room temperature. The plate was read on Caliper EZ reader, and the IC50 values were calculated using XLfit (equation below).
[formula] • LumSample: Test compound signal • LumLC: Low control signal • LumHC: High control signal

SMILES: CN1CCC[C@@H]1c1cc2cnc(NC(=O)c3ccc(-c4cn[nH]c4)cc3F)cc2[nH]1 [Example 4, (R)-2-fluoro-N-(2-(1-methylpyrrolidin-2-yl)-1H-pyrrolo[3,2-c]pyridin-6-yl)-4-(1H-pyrazol-4-yl)benzamide]
- IC50 (ENL YEATS domain): 67 nM
- IC50 [1]: 119 nM

SMILES: COCc1n[nH]cc1-c1ccc(C(=O)Nc2cc3[nH]c([C@H]4CCCN4C)cc3cn2)cc1 [Example 8, (R)-4-(5-(methoxymethyl)-1H-pyrazol-4-yl)-N-(2-(1-methylpyrrolidin-2-yl)-1H-pyrrolo[3,2-c]pyridin-6-yl)benzamide]
- IC50 (ENL YEATS domain): 179 nM
- IC50 [1]: 357 nM

SMILES: CN1CCC[C@H]1c1cc2cnc(NC(=O)c3ccc(-c4cn[nH]c4)cn3)cc2[nH]1 [Example 3, (S)-N-(2-(1-methylpyrrolidin-2-yl)-1H-pyrrolo[3,2-c]pyridin-6-yl)-5-(1H-pyrazol-4-yl)picolinamide]
- IC50 [1]: 83 nM
- IC50 (FLT3): 13 nM

SMILES: CN1CCC[C@@H]1c1cc2cnc(NC(=O)c3ccc(-c4cn[nH]c4)cc3)cc2[nH]1 [Example 5, (R)-N-(2-(1-methylpyrrolidin-2-yl)-1H-pyrrolo[3,2-c]pyridin-6-yl)-4-(1H-pyrazol-4-yl)benzamide]
- IC50 (ENL YEATS domain): 46 nM
- IC50 [1]: 79 nM
- IC50 (FLT3): 274 nM

SMILES: CN1CCC[C@@H]1c1cc2cnc(NC(=O)c3ccc(-c4c[nH]nc4F)cc3)cc2[nH]1 [Example 9, (R)-4-(5-fluoro-1H-pyrazol-4-yl)-N-(2-(1-methylpyrrolidin-2-yl)-1H-pyrrolo[3,2-c]pyridin-6-yl)benzamide]
- IC50 (ENL YEATS domain): 73 nM
- IC50 [1]: 176 nM

SMILES: CN1CCCC[C@@H]1c1cc2cnc(NC(=O)c3ccc(-c4cn[nH]c4)cc3)cc2[nH]1 [Example 6, (R)-N-(2-(1-methylpiperidin-2-yl)-1H-pyrrolo[3,2-c]pyridin-6-yl)-4-(1H-pyrazol-4-yl)benzamide]
- IC50 (ENL YEATS domain): 64 nM
- IC50 [1]: 138 nM

SMILES: Cc1cc2cnc(NC(=O)c3ccc(-c4cn[nH]c4)cn3)cc2[nH]1 [Example 1, N-(2-methyl-1H-pyrrolo[3,2-c]pyridin-6-yl)-5-(1H-pyrazol-4-yl)picolinamide]
- IC50 [1]: 40 nM
- IC50 (FLT3): 7 nM

SMILES: CN1CCC[C@@H]1c1cc2cnc(NC(=O)c3ccc(-c4cn[nH]c4)cn3)cc2[nH]1 [Example 2, (R)-N-(2-(1-methylpyrrolidin-2-yl)-1H-pyrrolo[3,2-c]pyridin-6-yl)-5-(1H-pyrazol-4-yl)picolinamide]
- IC50 [1]: 19 nM
- IC50 (FLT3): 7 nM

SMILES: CN1CCCC[C@@H]1c1cc2cnc(NC(=O)c3ccc(-c4cn[nH]c4)cn3)cc2[nH]1 [Example 7, (R)-N-(2-(1-methylpiperidin-2-yl)-1H-pyrrolo[3,2-c]pyridin-6-yl)-5-(1H-pyrazol-4-yl)picolinamide]
- IC50 [1]: 36 nM
